Structures are written as SMILES. pIC50: −log10 of the molar value. “And” between values parts separate entries of the source, which are not always exact repeats. Equal values may be shown once.

One experiment concerns the target T1, CDK2/cyclin E (Homo sapiens, UniProt P24941).
T1 construct: purchased Milipore (Billerica, Mass.)
As to the kind of experiment: CDK2/cyclin E kinase assay. In kind it is biochemical. The settings on record: for pIC50: ten concentrations, dose response curves, read-out: CDK2/cyclin E inhibitory activity IC50; for CDK2 potency relative to compound 1: higher potency than 1. The protocol:
CDK1/cyclin B, CDK2/cyclin E were purchased from Milipore (Billerica, Mass.). The kinase activity was tested in buffer (8 mM MOPS pH 7.0, 0.2 mM EDTA, 10 mM MgAcetate), with 0.1 mg/mL histone H1, in the presence of 45 µM [—^33P] ATP (500 cpm/pmol) for CDK1 or 120 μM [γ—^33P] ATP (500 cpm/pmol) for CDK2 in a final reaction volume of […]. The reaction was initiated by the addition of the MgATP mix. After incubation for 40 min at 30° C., the reaction was stopped by the addition of 5 μL of 3% phosphoric acid solution. 10 μL aliquots of supernatant were spotted onto 2.5 cm×3 cm pieces of Whatman […] phosphocellulose paper, and 20 s later, the filters were washed three times for 5 min in 75 mM phosphoric acid and once in methanol prior to drying. The […] filters were counted in the presence of 1 mL of ACS (Amersham) scintillation fluid. The activities are usually expressed as a percentage of the maximal activity, i.e., in the absence of inhibitors. Controls were applied with appropriate dilutions of DMSO.

Experiment [1] has as its system A549 human lung cancer cell. As to the kind of experiment: SRB cell proliferation assay, A549. In kind it is cell-based. The settings on record: A549, 72 h, 3 days. How it is done:
(§1) ^a A series of indirubin derivatives were tested at five concentrations for their effects on various human cancer cell lines using SRB assay, as described in the Experimental Section.
(§2) Cells (A549, HT1080, HCT116, K562, SNU638, KB, MCF-7) were counted, diluted to 5×10^4 cells/mL with fresh medium (MEME, DMEM or RPMI containing 10% FBS), and added 190 μL of cell suspension to 96-well plates containing various concentrations of test compounds (10 μL in 10% aqueous DMSO). Test plates were incubated for 3 days at 37° C. in CO2 incubator. For zero day controls, cells were incubated for 30 min at 37° C. in CO2 incubator. All treatments were performed in triplicate. After the incubation periods, cells were fixed with 50 μL of cold 50% TCA at 4° C. for 30 min, washed 5 times with tap water, and air-dried. The fixed cells were stained with 0.4% SRB solution in 1% aqueous acetic acid at room temperature for 1 h. Free SRB solution was then removed by rinsing 5 times with 1% acetic acid, and air-dried. The bound dye was dissolved with 200 µL of 10 mM Tris-base (pH 10.0), and absorbance was determined at 515 nm using an ELISA microplate reader. Finally, the absorbance values obtained with each of the treatment procedures were averaged, and the average values obtained with the zero day control were subtracted.

Experiment [2] deals with HT1080 human fibro sarcoma cell. As to the kind of experiment: SRB cell proliferation assay, HT1080. In kind it is cell-based. The settings on record: HT-1080, 72 h, 3 days. The protocol:
as §1, §2

Experiment [3] relates to HCT116 human colon cancer cell. As to the kind of experiment: SRB cell proliferation assay, HCT116. In kind it is cell-based. The following applies: 3 days. How it is done:
as §1, §2

For a further experiment, the system named is K562 human leukemia cell. As to the kind of experiment: SRB cell proliferation assay, K562. In kind it is cell-based. The settings on record: K562, 72 h, 3 days. The protocol:
as §1, §2

In experiment [4] the test system is SNU638 human stomach cancer cell. As to the kind of experiment: SRB cell proliferation assay, SNU638. In kind it is cell-based. The following applies: SNU-638, 72 h, 3 days. How it is done:
as §1, §2

Experiment [5] deals with KB human nasopharyngeal cancer cell. As to the kind of experiment: SRB cell proliferation assay, KB. In kind it is cell-based. The following applies: 72 h, 3 days. How it is done: as §1, §2
Experiment [6] deals with MCF-7 human breast cancer cell. As to the kind of experiment: SRB cell proliferation assay, MCF-7. In kind it is cell-based. The following applies: MCF7, 72 h, 3 days. How it is done: as §1, §2
Experiment [7] has as its system several human cancer cell lines. As to the kind of experiment: SRB cell proliferation assay, summary over cell lines. In kind it is cell-based. The settings on record: Homo sapiens, range over cell lines; read-out: anti-proliferative IC50, range over cancer cell lines. The protocol: as §1, §2

As for `O=C1Nc2ccc([N+](=O)[O-])cc2/C1=C1/Nc2ccccc2C1=NO` [Compound 1, 5-nitroindirubin-3′-oxime, reference compound], the pIC50 at CDK2/cyclin E is 8.15 and 8.13.

Consider `O=C1Nc2ccc(Cl)cc2/C1=C1/Nc2ccc(O)cc2C1=NO` [Compound 11a, (2′Z, 3′E)-5′-Hydroxy-5-chloro-indirubin-3′-oxime], for which the pIC50 at CDK2/cyclin E is 8.28; in experiment [1], 4.79; in experiment [2] it was 5.53; in experiment [3] (Homo sapiens, HCT-116, 72 h), 5.46; in the experiment with K562 human leukemia cell, 4.91; in experiment [4], 5.29. Besides, the pIC50 is 4.99 in experiment [5] and 4.97 in [6].

Turning to `O=C1Nc2ccc(F)cc2/C1=C1/Nc2ccc(O)cc2C1=NO` [Compound 11c, (2′Z, 3′E)-5′-Hydroxy-5-fluoro-indirubin-3′-oxime], the pIC50 is 8.65 at CDK2/cyclin E; 5.39 in experiment [1]; 6.17 in experiment [2]; 5.78 in experiment [3] (Homo sapiens, HCT-116, 72 h); 5.85 in the experiment on K562 human leukemia cell; 5.68 in experiment [4]. Besides, the pIC50 is 5.34 in experiment [5] and 5.59 in experiment [6].

In the case of `O=C1Nc2ccc(OC(F)(F)F)cc2/C1=C1/Nc2ccc(O)cc2C1=NO` [Compound 11d, (2′Z, 3′E)-5′-Hydroxy-5-trifluoromethoxy-indirubin-3′-oxime], the pIC50 at CDK2/cyclin E was 8.08; in [1], 4.77; in experiment [2], 5.64; in [3] (Homo sapiens, HCT-116, 72 h) it was 5.65; in the experiment with K562 human leukemia cell, 5.23; in experiment [4], 5.53. The pIC50 is 5.24 in [5] and 5.38 in [6].

For `O=C1Nc2ccc(Cl)cc2/C1=C1/Nc2ccc(Cl)cc2C1=NO` [Compound 12a, (2′Z, 3′E)-5′-Chloro-5-chloro-indirubin-3′-oxime], the pIC50 is 7.95 on CDK2/cyclin E; < 4.70 in experiment [1]; 4.91 in experiment [2]; 5.73 in [3] (Homo sapiens, HCT-116, 72 h); 4.76 with K562 human leukemia cell; 5.59 in experiment [4]. Also, the pIC50 is 4.92 in experiment [5] and 5.21 in experiment [6].

Regarding `O=C1Nc2ccc(F)cc2/C1=C1/Nc2ccc(Cl)cc2C1=NO` [Compound 12c, (2′Z, 3′E)-5′-Chloro-5-fluoro-indirubin-3′-oxime], the pIC50 at CDK2/cyclin E is 8.00; in experiment [1], 4.72; in [2], 5.44; in experiment [3] (Homo sapiens, HCT-116, 72 h), 5.77; in the experiment on K562 human leukemia cell, 4.83; in experiment [4] it was 5.64. Further, the pIC50 in experiment [5] is 5.44; in experiment [6] it was 5.46.

For `O=C1Nc2ccc(OC(F)(F)F)cc2/C1=C1/Nc2ccc(Cl)cc2C1=NO` [Compound 12d, (2′Z, 3′E)-5′-Chloro-5-trifluoromethoxy-indirubin-3′-oxime], the pIC50 on CDK2/cyclin E was 7.12; in [1], < 4.70; in experiment [2], 4.75; in [3] (Homo sapiens, HCT-116, 72 h) it was 5.42; with K562 human leukemia cell, < 4.70; in [4], 5.57. For the same molecule, the pIC50 in experiment [5] was 5.55; in [6], 5.38.

Regarding `O=C1Nc2ccc(Cl)cc2/C1=C1/Nc2ccc(F)cc2C1=NO` [Compound 13a, (2′Z, 3′E)-5′-Fluoro-5-chloro-indirubin-3′-oxime], the pIC50 is 8.10 on CDK2/cyclin E; < 4.70 in experiment [1]; 5.27 in [2]; 5.48 in experiment [3] (Homo sapiens, HCT-116, 72 h); 5.15 in the experiment on K562 human leukemia cell; 5.20 in experiment [4]. Moreover, the pIC50 in [5] is 5.04; in [6], 5.15.

For `O=C1Nc2ccc([N+](=O)[O-])cc2/C1=C1/Nc2ccc(F)cc2C1=NO` [Compound 13b, (2′Z, 3′E)-5′-Fluoro-5-nitro-indirubin-3′-oxime], the “CDK2 potency relative to compound 1” value on CDK2/cyclin E is “approximately 4 fold”. The pIC50 at CDK2/cyclin E was 8.77; in experiment [1], 6.24; in experiment [2], 6.19; in [3], 6.55; in [3] (Homo sapiens, HCT-116, 72 h) it was ~6.52; in the experiment on K562 human leukemia cell, 6.34. Further, the pIC50 in [4] is 6.03; in experiment [5] it was 6.05; in experiment [6] it was 6.05; in experiment [7] it was 5.48 to 6.70.

In the case of `O=C1Nc2ccc(F)cc2/C1=C1/Nc2ccc(F)cc2C1=NO` [Compound 13c, (2′Z, 3′E)-5′-Fluoro-5-fluoro-indirubin-3′-oxime], the “CDK2 potency relative to compound 1” value on CDK2/cyclin E is reported as “approximately 4 fold”. The pIC50 was 8.74 at CDK2/cyclin E; 4.99 in experiment [1]; 5.07 in experiment [2]; 4.87 in experiment [3] (Homo sapiens, HCT-116, 72 h); 4.80 in the experiment on K562 human leukemia cell; 5.65 in experiment [4]. The pIC50 in experiment [5] was 4.88; in experiment [6] it was 5.18.

As for `O=C1Nc2ccc(OC(F)(F)F)cc2/C1=C1/Nc2ccc(F)cc2C1=NO` [Compound 13d, (2′Z, 3′E)-5′-Fluoro-5-trifluoromethoxy-indirubin-3′-oxime], the pIC50 was 7.22 on CDK2/cyclin E; 4.70 in [1]; 5.40 in experiment [2]; 5.82 in [3] (Homo sapiens, HCT-116, 72 h); 5.82 with K562 human leukemia cell; 5.72 in experiment [4]. The pIC50 was 5.42 in [5] and 5.39 in [6].

As for `Cc1ccc2c(c1)C(=NO)/C(=C1/C(=O)Nc3ccc(Cl)cc31)N2` [Compound 14a, (2′Z, 3′E)-5′-Methyl-5-chloro-indirubin-3′-oxime], the pIC50 is < 4.70 in experiment [1]; < 4.70 in [2]; 4.73 in [3] (Homo sapiens, HCT-116, 72 h); < 4.70 with K562 human leukemia cell; 4.90 in [4]; 5.29 in experiment [5]. Further, the pIC50 in experiment [6] was 5.06.

As to `Cc1ccc2c(c1)C(=NO)/C(=C1/C(=O)Nc3ccc(F)cc31)N2` [Compound 14c, (2′Z, 3′E)-5′-Methyl-5-fluoro-indirubin-3′-oxime], the pIC50 in experiment [1] was < 4.70; in experiment [2], < 4.70; in experiment [3] (Homo sapiens, HCT-116, 72 h), < 4.70; in the experiment with K562 human leukemia cell, < 4.70; in experiment [4] it was 4.94; in experiment [5], 4.97. Also, the pIC50 in [6] is 4.98.

Regarding `Cc1ccc2c(c1)C(=NO)/C(=C1/C(=O)Nc3ccc(OC(F)(F)F)cc31)N2` [Compound 14d, (2′Z, 3′E)-5′-Methyl-5-trifluoromethoxy-indirubin-3′-oxime], the pIC50 is < 4.70 in experiment [1]; < 4.70 in experiment [2]; < 4.70 in experiment [3] (Homo sapiens, HCT-116, 72 h); < 4.70 with K562 human leukemia cell; < 4.70 in experiment [4]; 5.09 in [5]. The same molecule gave a pIC50 in experiment [6] of 5.14.

Regarding `COc1ccc2c(c1)C(=NO)/C(=C1/C(=O)Nc3ccc([N+](=O)[O-])cc31)N2` [Compound 16a, (2′Z, 3′E)-5′-Methoxy-5-nitro-indirubin-3′-oxime], the pIC50 at CDK2/cyclin E is 5.53; in [1], < 4.70; in experiment [2] it was < 4.70; in [3] (Homo sapiens, HCT-116, 72 h), < 4.70; in the experiment on K562 human leukemia cell it was < 4.70; in experiment [4], < 4.70. Besides, the pIC50 in experiment [5] and in experiment [6] was < 4.70 throughout.

Consider `COc1ccc2c(c1)C(=NO)/C(=C1/C(=O)Nc3ccc(OC(F)(F)F)cc31)N2` [Compound 16c, (2′Z, 3′E)-5′-Methoxy-5-trifluoromethoxy-indirubin-3′-oxime], for which the pIC50 on CDK2/cyclin E is 5.06; in [1] it was < 4.70; in experiment [2], < 4.70; in [3] (Homo sapiens, HCT-116, 72 h) it was < 4.70; in the experiment with K562 human leukemia cell, < 4.70; in experiment [4] it was < 4.70. The pIC50 in [5] is 4.70; in experiment [6], 4.89.

Source of the values: patent US8859783B2, “Indirubin-3′-oxime derivatives as potent cyclin dependent kinase inhibitors” (Anygen Co., Ltd., priority 2010, dated 2014).
